The results in this text go back to patent publication US8512709B2, “Modified amyloid β peptide” (The Chemo-Sero-Therapeutic Research Institue, priority 2008, dated 2013).

The subject of the assay is Aβ peptide (1-40 amino acid sequence). Kind of assay: Anti-Aβ IgG antibody titer of murine serum after immunization with Aβ peptides (ELISA on immobilized Aβ 1-40). The assay is classed as in vivo, C57BL/6 mice. The settings on record: for Antibody titer Animal No. 1 / Antibody titer Animal No. 2 / Antibody titer Animal No. 3 / Antibody titer Animal No. 4: C57BL/6 mouse serum, Day 7 from final 3rd immunization; for Antibody titer Animal No. 1 / Antibody titer Animal No. 2 / Antibody titer Animal No. 3 / Antibody titer Animal No. 4 / Antibody titer Mean: 100 μg/mouse; for Antibody titer Mean: mean of 4 mice, serum Day 7 from final 3rd immunization.

The mark [1] stands for this setting: Example 2, result in words on Table 2.
The mark [2] stands for this setting: Example 1, result in words on Table 1.

For the sequence “DAEFRHDSGYKGAIIGLMVGGC [1-10•28-38AACys, 1-10+28-38-amino acid Aβ peptide with addition of Cysteine]”, for the setting “Example 2”, the “Antibody titer Animal No. 1” value turned out to be 19149 ng/mL, the “Antibody titer Animal No. 2” value turned out to be 34270 ng/mL, the “Antibody titer Animal No. 3” value amounted to 108780 ng/mL and the “Antibody titer Animal No. 4” value turned out to be 61824 ng/mL. In addition, the “Antibody titer Mean” value (Example 2) is listed as 56005.8 ng/mL. For the same sequence, under setting [1], the “induction of an antibody to Aβ” value is recorded as “observed”.

Take “DAEFRHDSGYKGAIIGLMVGGVC [1-10•28-39AACys, 1-10+28-39-amino acid Aβ peptide with addition of Cysteine]”: under “Example 2”, the “Antibody titer Animal No. 1” value is reported as 139361 ng/mL, the “Antibody titer Animal No. 2” value came to 10808 ng/mL, the “Antibody titer Animal No. 3” value is listed as 13326 ng/mL and the “Antibody titer Animal No. 4” value came to 230453 ng/mL. The “Antibody titer Mean” value (Example 2) is listed as 98487.0 ng/mL. Further, the “induction of an antibody to Aβ” value under setting [1] was “observed”.

Turning to “DAEFRHDSGYKGAIIGLMVGGVVC [1-10•28-40AACys, 1-10+28-40-amino acid Aβ peptide with addition of Cysteine]”, for the setting “Example 2”, the “Antibody titer Animal No. 1” value is reported as 4560 ng/mL, the “Antibody titer Animal No. 2” value came out at 148622 ng/mL, the “Antibody titer Animal No. 3” value is listed as 5118 ng/mL and the “Antibody titer Animal No. 4” value worked out at 4988 ng/mL. Moreover, for the setting “Example 2”, the “Antibody titer Mean” value was 40822.0 ng/mL. For the same sequence, the “induction of an antibody to Aβ” value under setting [1] is reported as “observed”.

For “DAEFRHDSGYKGAIIGLMVGGVVIA [1-10•28-42AA, 1-10+28-42-amino acid Aβ peptide, without addition of cysteine, reference compound]”, where the note is “Example 1”, the “Antibody titer Animal No. 1” value is 66 ng/mL, the “Antibody titer Animal No. 2” value is on record as 715 ng/mL, the “Antibody titer Animal No. 3” value stood at 3559 ng/mL and the “Antibody titer Animal No. 4” value amounted to 13 ng/mL. Where the note is “Example 1”, the “Antibody titer Mean” value came out at 1088.5 ng/mL. The “induction of an antibody to Aβ” value under setting [2] is on record as “observed”.

With “DAEFRHDSGYKGAIIGLMVGGVVIAC [1-10•28-42AACys, 1-10+28-42-amino acid Aβ peptide with addition of Cysteine]”, for the setting “Example 1”, the “antibody titer against Aβ as compared to the peptide without addition of cysteine (1-10·28-42AA)” value is listed as “higher antibody titer”, the “Antibody titer Animal No. 1” value was 46266 ng/mL, the “Antibody titer Animal No. 2” value was 19854 ng/mL and the “Antibody titer Animal No. 3” value turned out to be 40681 ng/mL. Under “Example 1”, the “Antibody titer Animal No. 4” value is recorded as 33 ng/mL and the “Antibody titer Mean” value was 26708.6 ng/mL. Besides, the “induction of an antibody to Aβ” value under setting [2] is on record as “observed”. Besides, for the setting “Example 2”, the “Antibody titer Animal No. 1” value was 32 ng/mL, the “Antibody titer Animal No. 2” value amounted to 30482 ng/mL, the “Antibody titer Animal No. 3” value is 33623 ng/mL and the “Antibody titer Animal No. 4” value stood at 2072 ng/mL. Further, the “Antibody titer Mean” value (Example 2) was found to be 16552.3 ng/mL. Further, the “induction of an antibody to Aβ” value under setting [1] is “observed”. Further, under “Example 5”, the “Antibody titer Animal No. 1” value is on record as 886.2 ng/mL, the “Antibody titer Animal No. 2” value stood at 463379 ng/mL, the “Antibody titer Animal No. 3” value is given as 414.8 ng/mL and the “Antibody titer Animal No. 4” value was found to be 3314 ng/mL. Moreover, the “Antibody titer Mean” value (Example 5) was 116998.5 ng/mL.

As for “DAEFRHDSGYKGAIIGLMVGGVVIC [1-10•28-41AACys, 1-10+28-41-amino acid Aβ peptide with addition of Cysteine]”, for the setting “Example 2”, the “Antibody titer Animal No. 1” value came to 292 ng/mL, the “Antibody titer Animal No. 2” value amounted to 1000 ng/mL, the “Antibody titer Animal No. 3” value was found to be 48460 ng/mL and the “Antibody titer Animal No. 4” value was 422012 ng/mL. Under “Example 2”, the “Antibody titer Mean” value is on record as 117941.1 ng/mL. In addition, the “induction of an antibody to Aβ” value under setting [1] was “observed”.

As for “DAEFRHDSKGAIIGLMVGC [1-8•28-37AACys, 1-8+28-37-amino acid Aβ peptide with addition of Cysteine]”, for the setting “Example 3”, the “Antibody titer Animal No. 1” value is on record as 16 ng/mL, the “Antibody titer Animal No. 2” value is 16 ng/mL, the “Antibody titer Animal No. 3” value was 43 ng/mL and the “Antibody titer Animal No. 4” value stood at 31 ng/mL. Also, the “Antibody titer Mean” value (Example 3) is recorded as 26.4 ng/mL.

Consider “EFRHDSGYKGAIIGLMVGC (added cysteine) [3-10•28-37AACys, 3-10+28-37-amino acid Aβ peptide with addition of Cysteine]”, for which, for the setting “Example 4”, the “Antibody titer Animal No. 1” value is listed as 3203 ng/mL, the “Antibody titer Animal No. 2” value is 1456 ng/mL, the “Antibody titer Animal No. 3” value is 4500 ng/mL and the “Antibody titer Animal No. 4” value was found to be 52 ng/mL. Also, the “Antibody titer Mean” value (Example 4) was 2302.8 ng/mL. In addition, the “induction of an antibody to Aβ” value (Example 4, result in words on Table 4) is “observed”.

For the sequence “FRHDSGYKGAIIGLMVGC (added cysteine) [4-10•28-37AACys, 4-10+28-37-amino acid Aβ peptide with addition of Cysteine]”, for the setting “Example 4”, the “Antibody titer Animal No. 1” value was 24 ng/mL, the “Antibody titer Animal No. 2” value was 31 ng/mL, the “Antibody titer Animal No. 3” value was 53 ng/mL and the “Antibody titer Animal No. 4” value amounted to 27 ng/mL. The “Antibody titer Mean” value (Example 4) was found to be 33.8 ng/mL.
